Earlier results, collected in patent publication US20250032494A1, “A COMBINATION TREATMENT FOR CANCER” (My Personal Therapeutics LTD, priority 2021, published 2025).

How the values were obtained:
[1] = patients; with and without co-administration of DMARDs
[2] = system: tumors with the BRAF V600 mutation; conditions: both in vitro and in vivo
[3] = patients; versus cytotoxic active controls dacarbazine or paclitaxel

Row | Structure (SMILES) | improvement over placebo [1] | cell growth of tumors with the BRAF V600 mutation [2] | progression-free survival [3]
1 | CCOc1cc([C@@H](CS(C)(=O)=O)N2C(=O)c3cccc(NC(C)=O)c3C2=O)ccc1OC [Apremilast] | statistically significant improvement over placebo | – | –
2 | CC(=O)Nc1cccc(-n2c(=O)n(C3CC3)c(=O)c3c(Nc4ccc(I)cc4F)n(C)c(=O)c(C)c32)c1 [Trametinib] | – | inhibits cell growth | statistically significant increase in progression-free survival
